Reference: patent EP4768487A1, “FUSED LACTAM RING COMPOUND AND USE THEREOF” (Chengdu Zenitar Biomedical Technology Co., Ltd., priority 2023, dated 2025)
Where two headings read alike, the source gives them in different places.

Legend:
PARP1 = target: T1, PARP1 (Homo sapiens, UniProt P09874); experiment: PARP1 enzyme assay (histone-coated plate, chemiluminescence); assay type: biochemical; details: PARP1 0.02 nM, DNA 0.8 nM, NAD+ 3.5 µM; read-out: PARP-1 IC50
T1 construct: purchased BPS 80501

[1] = Cerebrospinal fluid and plasma distribution in vivo; details: rat, male rats, intravenous 5 mg/kg, n = 1
[2] = cerebrospinal fluid, read-out: Cerebrospinal fluid

T1 sequence (P09874 whole entry): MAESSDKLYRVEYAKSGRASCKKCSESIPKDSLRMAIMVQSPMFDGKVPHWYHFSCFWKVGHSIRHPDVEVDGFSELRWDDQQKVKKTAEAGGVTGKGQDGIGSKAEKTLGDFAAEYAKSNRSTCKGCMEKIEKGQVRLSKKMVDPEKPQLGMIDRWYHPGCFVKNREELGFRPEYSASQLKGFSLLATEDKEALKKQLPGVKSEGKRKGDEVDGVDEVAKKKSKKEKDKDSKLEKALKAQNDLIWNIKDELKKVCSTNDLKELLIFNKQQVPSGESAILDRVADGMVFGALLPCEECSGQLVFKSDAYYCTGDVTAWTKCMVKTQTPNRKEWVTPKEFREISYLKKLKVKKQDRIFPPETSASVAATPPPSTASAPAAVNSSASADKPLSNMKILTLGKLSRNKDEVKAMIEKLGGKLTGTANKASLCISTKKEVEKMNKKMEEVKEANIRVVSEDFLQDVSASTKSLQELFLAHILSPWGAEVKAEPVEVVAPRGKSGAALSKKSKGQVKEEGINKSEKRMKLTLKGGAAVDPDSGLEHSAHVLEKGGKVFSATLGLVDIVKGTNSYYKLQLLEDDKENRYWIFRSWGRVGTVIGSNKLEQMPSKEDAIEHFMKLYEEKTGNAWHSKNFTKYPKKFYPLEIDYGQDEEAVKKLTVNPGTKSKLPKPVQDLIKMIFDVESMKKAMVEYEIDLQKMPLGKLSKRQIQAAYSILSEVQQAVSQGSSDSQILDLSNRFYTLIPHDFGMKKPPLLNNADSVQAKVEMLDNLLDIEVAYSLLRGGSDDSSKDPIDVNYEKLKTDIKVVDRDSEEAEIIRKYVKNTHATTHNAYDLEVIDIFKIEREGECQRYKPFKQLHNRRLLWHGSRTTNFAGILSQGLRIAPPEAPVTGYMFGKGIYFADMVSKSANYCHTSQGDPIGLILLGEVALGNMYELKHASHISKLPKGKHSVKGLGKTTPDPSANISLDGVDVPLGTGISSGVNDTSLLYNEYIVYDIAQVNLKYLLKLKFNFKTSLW

CNC(=O)c1ccc(N2CCN(CC3Cc4[nH]c(=O)c(C)cc4CO3)CC2)c(Cl)n1 (centres unmarked) [Example 74, 6-Chloro-N-methyl-5-(4-((3-methyl-2-oxo-1,5,7,8-tetrahydro-2H-pyrano[4,3-b]pyridin-7-yl)methyl)piperazin-1-yl)picolinamide]
IC50 (PARP1): ≤ 50 nM | concentration at 0.25 h [1, 2]: 60 ng/g | concentration at 2 h [1, 2]: 19 ng/g | concentration at 0.25 h ([1]; plasma, read-out: Plasma): 8790 ng/mL | concentration at 2 h ([1]; plasma, read-out: Plasma): 5560 ng/mL
